Activity calls are given as the source filed them.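 How the source made its calls: active means parasite count per well reduced by over 3 SD from the mean, with host cell number above 80% of untreated; inactive means the rest.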
The compounds below were run on L. donovani amastigotes in THP-1 macrophages, DAPI imaging, 72 h (assay: L. donovani intracellular amastigote growth inhibitors, imaging, THP-1 host macrophages, single concentration (AID 977614);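 further: signal is the parasite per host cell ratio from DAPI stained kinetoplasts and nuclei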).

Structure (SMILES)	AC50
C[C@H]1CN([C@@H](C)CO)C(=O)CCCn2nncc2CO[C@@H]1CN(C)Cc1cccc(C(F)(F)F)c1	> 10 µM (inactive)
O=C(CC(F)(F)F)N1C[C@H]2[C@@H](c3ccccc31)[C@H](CO)N2C(=O)C1CCCCC1	> 10 µM (inactive)
CC(=O)N1[C@H](CO)[C@H](c2ccccc2)[C@H]1CN(C)S(=O)(=O)c1ccccc1	> 10 µM (inactive)
COc1ccccc1NC(=O)N1C[C@H]2[C@@H](c3ccccc31)[C@H](CO)N2CC1CCOCC1	> 10 µM (inactive)
C[C@H](CO)N1C[C@H](C)[C@H](CN(C)C(=O)Nc2ccc3c(c2)OCO3)OCc2cn(nn2)CCCC1=O	> 10 µM (inactive)
CC(C)NC(=O)N1[C@H](CNC(=O)CN(C)C)[C@H](c2ccccc2)[C@@H]1CO	> 10 µM (inactive)
O=C(Nc1ccc(F)cc1)N1C[C@H]2[C@@H](c3ccccc31)[C@H](CO)N2C(=O)c1ccncc1	> 10 µM (inactive)
OC[C@@H]1[C@H]2c3ccccc3NC[C@H]2N1CC1CCOCC1	> 10 µM (inactive)
CCC(=O)N1C[C@H]2[C@@H](c3ccccc31)[C@@H](CO)N2Cc1ccc(F)cc1	> 10 µM (inactive)
Cc1noc(C)c1S(=O)(=O)N(C)C[C@H]1OCc2cn(nn2)CCCC(=O)N([C@H](C)CO)C[C@H]1C	> 10 µM (inactive)
O=C(c1ccccn1)N1C[C@H]2[C@@H](c3ccccc31)[C@@H](CO)N2C(=O)C1CCCCC1	> 10 µM (inactive)
C[C@@H]1CN([C@@H](C)CO)C(=O)CCCn2nncc2CO[C@@H]1CN(C)C(=O)Nc1cccc(Oc2ccccn2)c1	> 10 µM (inactive)
CC(=O)N1[C@@H](CO)[C@@H]2c3ccccc3N(S(=O)(=O)c3ccccc3C)C[C@@H]21	> 10 µM (inactive)
C[C@H](CO)N1C[C@H](C)[C@@H](CN(C)C(=O)Nc2cccc3ccccc23)OCc2cn(nn2)CCCC1=O	> 10 µM (inactive)
C[C@@H]1CN([C@@H](C)CO)C(=O)CCCn2nncc2CO[C@@H]1CN(C)C(=O)c1cc(-c2ccccc2)on1	> 10 µM (inactive)
COCC(=O)N1[C@H](CO)[C@@H]2c3ccccc3N(C(=O)Nc3ccccc3Cl)C[C@@H]21	> 10 µM (inactive)
O=C(Nc1ccccc1Cl)N1C[C@@H]2[C@H](c3ccccc31)[C@@H](CO)N2Cc1ccncc1	> 10 µM (inactive)
O=C(NC[C@H]1[C@H](c2ccccc2)[C@@H](CO)N1Cc1ccccn1)C1CCCC1	> 10 µM (inactive)

Structure (SMILES)	AC50
Cc1noc(C)c1S(=O)(=O)N(C)C[C@H]1OCc2cn(nn2)CCCC(=O)N([C@@H](C)CO)C[C@@H]1C	> 10 µM (inactive)
COCC(=O)N(C[C@H]1N[C@H](CO)[C@@H]1c1ccc(C2=CCCC2)cc1)C1CCCC1	> 10 µM (inactive)
C[C@@H]1CN([C@@H](C)CO)C(=O)CCCn2nncc2CO[C@H]1CN(C)CC1CCCCC1	> 10 µM (inactive)
C[C@H](CO)N1C[C@H](C)[C@H](CN(C)C(=O)CCC(F)(F)F)OCc2cn(nn2)CCCC1=O	> 10 µM (inactive)
COCC(=O)N1[C@H](CO)[C@H]2c3ccccc3N(C(=O)c3cccnc3)C[C@H]21	> 10 µM (inactive)
O=C(C1CCCCC1)N1[C@@H](CO)[C@@H]2c3ccccc3NC[C@@H]21	> 10 µM (inactive)
COCCN(C[C@H]1[C@H](c2ccccc2)[C@@H](CO)N1C(=O)C1CC1)C(C)=O	> 10 µM (inactive)
C[C@@H]1CN([C@@H](C)CO)C(=O)CCCn2nncc2CO[C@H]1CN(C)C(=O)CCC(F)(F)F	> 10 µM (inactive)
CC(C)N(C[C@H]1[C@@H](c2ccccc2)[C@@H](CO)N1CC1CC1)C(=O)C1CCC1	> 10 µM (inactive)
COCC(=O)N1C[C@H]2[C@@H](c3ccccc31)[C@@H](CO)N2Cc1cc(F)ccc1F	> 10 µM (inactive)
O=C(Cc1ccccn1)N1[C@H](CO)[C@@H]2c3ccccc3NC[C@@H]21	> 10 µM (inactive)
C[C@H]1CN([C@@H](C)CO)C(=O)CCCn2cc(nn2)CO[C@H]1CN(C)C(=O)Nc1cccc(C(F)(F)F)c1	> 10 µM (inactive)
C[C@H](CO)N1C[C@H](C)[C@H](CN(C)C(=O)Nc2cccc(Oc3ccccn3)c2)OCc2cnnn2CCCC1=O	> 10 µM (inactive)
C[C@H]1CN([C@@H](C)CO)C(=O)CCCn2cc(nn2)CO[C@@H]1CN(C)C(=O)NC1CCCCC1	> 10 µM (inactive)
O=S(=O)(NC[C@H]1[C@H](c2ccccc2)[C@H](CO)N1CC1CC1)c1ccccc1	> 10 µM (inactive)
COc1ccccc1S(=O)(=O)N(C)C[C@@H]1OCc2cn(nn2)CCCC(=O)N([C@@H](C)CO)C[C@H]1C	> 10 µM (inactive)
C[C@H]1CN([C@@H](C)CO)C(=O)CCCn2nncc2CO[C@@H]1CN(C)C(=O)CCC(F)(F)F	> 10 µM (inactive)
